# According to patent US20100056555A1, “METHOD OF TREATING RAS ASSOCIATED CANCER” (ENZON PHARMACEUTICALS, INC., priority 2008, published 2010):
# Where “and” joins values, the source holds several entries; their conditions need not be identical. Equal values may be shown once. Read-outs that look alike come from different tables or passages of the source.
# Legend:
# [1] = test system: Calu-6 Human Lung Carcinoma cells; conditions: Calu-6 xenograft mice; for % T/C / % TGI: day 20; for Observed cures: day 57
# [2] = test system: MiaPaCA-2 pancreatic cells; assay: Kras mutant pancreatic cancer xenograft model (MiaPaCa-2); format: in vivo, human; conditions: MiaPaCa-2 xenograft mice
# [3] = test system: SW480 Human colorectal carcinoma cells; assay: SW480 human colorectal xenografts, Erbitux failed tumors; conditions: 40 mg/kg q2dx7 after C-225 challenge; SW480 xenograft mice; Day 22
# [4] = test system: Calu-6 Human Lung Carcinoma cells; assay: Calu 6 Kras mutant xenografts that failed C225 (Erbitux) therapy; conditions: 40 mg/kg q2dx5 after C-225 challenge, Calu-6 xenograft mice
# [5] = test system: SW480 Human colorectal carcinoma cells; assay: Kras mutant xenograft model of human colorectal cancer (SW480), single agent therapy; conditions: SW480 xenograft mice, Day 22
structure (smiles),measurement,setting,value
"CCc1c2c(nc3ccc(OC(=O)N4CCC(N5CCCCC5)CC4)cc13)-c1cc3c(c(=O)n1C2)COC(=O)[C@]3(O)CC [CPT-11, Irinotecan]",% T/C,[1]; 40 mg/kg q2dx5,5%
same,% TGI,[1]; 40 mg/kg q2dx5,95%
same,Observed cures,[1]; 40 mg/kg q2dx5,0/8
same,day by which animals relapsed,[1]; 40 mg/kg q2d×5,40 to 45 days
same,% T/C,[1]; 80 mg/kg qdx1,48%
same,% TGI,[1]; 80 mg/kg qdx1,52%
same,Observed cures,[1]; 80 mg/kg qdx1,0/8
same,day by which all animals had to be sacrificed due to excessive tumor burden,[1]; 80 mg/kg qd×1,22 to 24 days
same,TGI,"[2]; CPT-11 at corresponding dose level as compound 9 (10 mg/kg, q2d×5)",20%
same,TGI,[2]; multiple-dose at MTD of CPT-11 (40 mg/kg q2d×5),47%
same,effect on tumor growth,[2]; single dose at the MTD (80 mg/kg qd×1),no effect on tumor growth
same,% TGI,[3],65.38%
same,Percent Change in TV,[3],219.31%
same,% TGI,[4]; day 20,84%
same,Observed cures,[4]; day 57,0/8
same,% TGI,[5]; 40 mg/kg q2dx5,65% and 64.76%
same,Percent Change in TV,[5]; 40 mg/kg q2dx5,163.62%
same,% T/C,[5]; 80 mg/kg qdx1,66.60%
same,% TGI,[5]; 80 mg/kg qdx1,47% and 46.53%
same,Percent Change in TV,[5]; 80 mg/kg qdx1,397.75%
